Test results: patent publication US6525021B1 (priority 1998, dated 2003)
Non-standard residues stand in square brackets, D forms with d. Residues, ends and D or L forms follow the SMILES beside them. *: point of attachment. X1 = CC(=O)N[C@@H]1[C@@H](O[C@@H]2O[C@H](CO)[C@H](O)[C@H](O)[C@H]2O)[C@@H](O)[C@@H](CO)O[C@@H]1*; pGlu = O=C1CC[C@@H](C(=O)O)N1

Tests used:
[1] = mouse, in vivo
[2] = mouse, in vivo; remark: listed apart in the source

Compound	motor impairment on rotorod compared to vehicle [1]	antinociceptive doses relative to doses for locomotor impairment or hypothermia [2]	doses causing long-lasting motor impairment, as multiple of ED50 [2] [fold]	duration of motor impairment [2] [h]	time of maximal locomotor impairment post i.t. injection [2] [min]	TD50, rotorod test of minimal motor impairment [2] [pmol]	time after which motor impairment resolved [2] [h]
CC[C@H](C)[C@H](NC(=O)[C@H](Cc1ccc(O)cc1)NC(=O)[C@@H]1CCCN1C(=O)[C@H](CCCCN)NC(=O)[C@H](CCCCN)NC(=O)[C@@H](NC(=O)[C@H](C)NC(=O)[C@H](CC(N)=O)NC(=O)[C@H](CO)NC(=O)CNC(=O)CNC(=O)[C@H](CCC(=O)O)NC(=O)[C@H](CCC(=O)O)NC(=O)[C@H](CO)NC(=O)[C@@H]1CCC(=O)N1)[C@@H](C)O)C(=O)N[C@@H](CC(C)C)C(=O)O [Thr10-contulakin-G] (HELM PEPTIDE1{[Glp].S.E.E.G.G.S.N.A.T.K.K.P.Y.I.L}$$$$V2.0)	no motor impairment	approximately equal doses	≥ 10	2 to 3	15	–	–
CC[C@H](C)[C@H](NC(=O)[C@H](Cc1ccc(O)cc1)NC(=O)[C@@H]1CCCN1C(=O)[C@H](CCCCN)NC(=O)[C@H](CCCCN)NC(=O)[C@@H](NC(=O)[C@H](C)NC(=O)[C@H](CC(N)=O)NC(=O)[C@H](CO)NC(=O)CNC(=O)CNC(=O)[C@H](CCC(=O)O)NC(=O)[C@H](CCC(=O)O)NC(=O)[C@H](CO)NC(=O)[C@@H]1CCC(=O)N1)[C@@H](C)O[C@H]1O[C@H](CO)[C@H](O)[C@H](O[C@@H]2O[C@H](CO)[C@H](O)[C@H](O)[C@H]2O)[C@H]1NC(C)=O)C(=O)N[C@@H](CC(C)C)C(=O)O [contulakin-G] ([pGlu]SEEGGSNAT(X1)KKPYIL-OH)	–	10-100 fold	≥ 100	–	15	10 to 20	5
